How the values were obtained:
soybean = assay: Test E postemergence; type: in vivo, Glycine max; conditions: Glycine max, post-emergence
Excerpt: Seeds of plant species selected from corn (Zea mays), soybean (Glycine max), velvetleaf (Abutilon theophrasti), lambsquarters (Chenopodium album), wild poinsettia (Euphorbia heterophylla), palmer pigweed (Amaranthus palmeri), waterhemp (common waterhemp, Amaranthus rudis), surinam grass (Brachiaria decumbens), large (Lg) crabgrass (Digitaria sanguinalis), Brazilian crabgrass (Digitaria horizontalis), fall panicum (Panicum dichotomiflorum), giant foxtail (Setaria faberii), green foxtail (Setaria viridis), goosegrass (Eleusine indica), johnsongrass (Sorghum halepense), ragweed (common ragweed, Ambrosia elatior), barnyardgrass (Echinochloa crus-galli), sandbur (southern sandbur, Cenchrus echinatus), arrowleaf sida (Sida rhombifolia), Italian ryegrass (Lolium multiflorum), dayflower (Virginia (VA) dayflower, Commelina virginica), field bindweed (Convolvulus arvensis), morningglory (Ipomoea coccinea), nightshade (eastern black nightshade, Solanum ptycanthum), kochia (Kochia scoparia), yellow nutsedge (Cyperus esculentus), cocklebur (common cocklebur, Xanthium strumarium), smartweed (ladysthumb smartweed, and hairy beggarticks (Bidens pilosa), were planted into a silt loam soil and treated preemergence with test chemicals formulated in a non-phytotoxic solvent mixture which included a surfactant.
At the same time, plants from these crop and weed species and also horseweed (Canada horseweed, Conyza canadensis), waterhemp_RES1, (ALS & Triazine resistant common waterhemp, Amaranthus rudis), and waterhemp_RES2, (ALS & HPPD resistant common waterhemp, Amaranthus rudis) were planted in pots containing Redi-Earth® planting medium (Scotts Company, 14111 Scottslawn Road, Marysville, Ohio 43041) comprising spaghnum peat moss, vermiculite, wetting agent and starter nutrients were treated with postemergence applications of test chemicals formulated in the same manner. Plants ranged in height from 2 to 18 cm for postemergence treatments (1- to 4-leaf stage). Treated plants and controls were maintained in a greenhouse for 14 to 21 days, after which time all species were compared to controls and visually evaluated. Plant response ratings, summarized in Table E, are based on a scale of 0 to 100 where 0 is no effect and 100 is complete control. A dash (-) response means no test result.

windgrass = assay: Test D postemergence; type: in vivo, Apera spica-venti; conditions: Apera spica-venti, post-emergence
Summary of the method: (§1)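 Visual ratings from 0 (no effect) to 100 (complete control) relative to untreated plants were taken 7–21 days after treatment. Chemicals in a surfactant-containing solvent mixture were applied preemergence to seeds in silt loam, or postemergence to plants 2–18 cm tall (1–4 leaves) grown in a peat-based potting medium.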

bromegrass, downy = assay: Test D preemergence; type: in vivo, Bromus tectorum; conditions: Bromus tectorum, pre-emergence
Summary of the method: as §1

field violet [1] = assay: Test D postemergence; type: in vivo, Viola arvensis; conditions: Viola arvensis, post-emergence
Summary of the method: as §1

green foxtail = assay: Test D postemergence; type: in vivo, Setaria viridis; conditions: Setaria viridis, post-emergence
Summary of the method: as §1

bluegrass [2] = assay: Test D postemergence; type: in vivo, Poa annua; conditions: Poa annua, post-emergence, Postemergence, scale 0 to 100 (0 no effect, 100 complete control), read-out: Plant response rating, Bluegrass
Summary of the method: as §1

bluegrass [3] = assay: Test D preemergence; type: in vivo, Poa annua; conditions: Poa annua, pre-emergence
Summary of the method: as §1

corn = assay: Test E postemergence; type: in vivo, Zea mays; conditions: Zea mays, post-emergence
Summary of the method: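 Compound in a non-phytotoxic solvent mixture with surfactant was applied preemergence to seeds in silt loam soil, or postemergence to plants 2 to 18 cm tall grown in peat-based potting medium. Plants were kept in a greenhouse for 14 to 21 days, then rated visually against untreated controls on a 0 (no effect) to 100 (complete control) scale.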

deadnettle = assay: Test D preemergence; type: in vivo, Lamium amplexicaule; conditions: Lamium amplexicaule, pre-emergence
Summary of the method: as §1

field violet [4] = assay: Test D preemergence; type: in vivo, Viola arvensis; conditions: Viola arvensis, pre-emergence
Summary of the method: as §1

kochia = assay: Test D postemergence; type: in vivo, Kochia scoparia; conditions: Bassia scoparia, post-emergence
Summary of the method: as §1

wild mustard = assay: Test D postemergence; type: in vivo, Sinapis arvensis; conditions: Brassica, post-emergence
Summary of the method: as §1

[5] = Postemergence, 31 g ai/ha, scale 0 to 100
[6] = Postemergence, 62 g ai/ha, scale 0 to 100
[7] = Postemergence, 125 g ai/ha, scale 0 to 100
[8] = postemergence, 8 g ai/ha, scale 0 to 100, 0 no effect, 100 complete control
[9] = postemergence, 16 g ai/ha, scale 0 to 100, 0 no effect, 100 complete control

Compound: Clc1cnc(Oc2ccccc2-n2cc(Br)cn2)nc1 [Compound 7, 2-[2-(4-bromo-1H-pyrazol-1-yl)phenoxy]-5-chloropyrimidine]
- plant response (crop injury) rating, soybean, 0-100 scale at 31 g/ha (soybean; [5]): 90%
- plant response (crop injury) rating, soybean, 0-100 scale at 62 g/ha (soybean; [6]): 98%
- plant response (crop injury) rating, soybean, 0-100 scale at 125 g/ha (soybean; [7]): 98%
- plant response (crop injury) rating, soybean, 0-100 scale at 8 g/ha (soybean; [8]): 60%
- plant response (crop injury) rating, soybean, 0-100 scale at 16 g/ha (soybean; [9]): 80%
- pest or weed control at 16 g/ha (windgrass; 16 g ai/ha, scale 0-100, read-out: Plant response rating, Windgrass): 0%
- pest or weed control at 31 g/ha (windgrass; 31 g ai/ha, scale 0 to 100 (0 no effect, 100 complete control), read-out: Plant response rating, Windgrass): 0%
- pest or weed control at 62 g/ha (windgrass; 62 g ai/ha, scale 0 to 100 (0 no effect, 100 complete control), read-out: Plant response rating, Windgrass): 0%
- pest or weed control at 125 g/ha (windgrass; 125 g ai/ha, scale 0 to 100 (0 no effect, 100 complete control), read-out: Plant response rating, Windgrass): 10%
- pest or weed control at 250 g/ha (windgrass; 250 g ai/ha, scale 0 to 100 (0 no effect, 100 complete control), read-out: Plant response rating, Windgrass): 25%
- pest or weed control at 16 g/ha (bromegrass, downy; 16 g ai/ha, scale 0 (no effect) to 100 (complete control), read-out: Plant response rating, Bromegrass, Downy): 0%
- pest or weed control at 31 g/ha (bromegrass, downy; 31 g ai/ha, scale 0-100, read-out: Plant response rating, Bromegrass, Downy): 0%
- pest or weed control at 62 g/ha (bromegrass, downy; 62 g ai/ha, scale 0-100, read-out: Plant response rating, Bromegrass, Downy): 0%
- pest or weed control at 125 g/ha (bromegrass, downy; 125 g ai/ha, scale 0-100, read-out: Plant response rating, Bromegrass, Downy): 0%
- pest or weed control at 250 g/ha (bromegrass, downy; 250 g ai/ha, scale 0-100, read-out: Plant response rating, Bromegrass, Downy): 0%
- pest or weed control at 16 g/ha (field violet [1]; 16 g ai/ha, scale 0-100, read-out: Plant response rating, Field Violet): 10%
- pest or weed control at 31 g/ha (field violet [1]; 31 g ai/ha, scale 0 to 100 (0 no effect, 100 complete control), read-out: Plant response rating, Field Violet): 20%
- pest or weed control at 62 g/ha (field violet [1]; 62 g ai/ha, scale 0 to 100 (0 no effect, 100 complete control), read-out: Plant response rating, Field Violet): 70%
- pest or weed control at 125 g/ha (field violet [1]; 125 g ai/ha, scale 0 to 100 (0 no effect, 100 complete control), read-out: Plant response rating, Field Violet): 70%
- pest or weed control at 250 g/ha (field violet [1]; 250 g ai/ha, scale 0 to 100 (0 no effect, 100 complete control), read-out: Plant response rating, Field Violet): 70%
- pest or weed control at 16 g/ha (green foxtail; 16 g ai/ha, scale 0-100, read-out: Plant response rating, Foxtail, Green): 0%
- pest or weed control at 31 g/ha (green foxtail; 31 g ai/ha, scale 0 to 100 (0 no effect, 100 complete control), read-out: Plant response rating, Foxtail, Green): 0%
- pest or weed control at 62 g/ha (green foxtail; 62 g ai/ha, scale 0 to 100 (0 no effect, 100 complete control), read-out: Plant response rating, Foxtail, Green): 0%
- pest or weed control at 125 g/ha (green foxtail; 125 g ai/ha, scale 0 to 100 (0 no effect, 100 complete control), read-out: Plant response rating, Foxtail, Green): 10%
- pest or weed control at 250 g/ha (green foxtail; 250 g ai/ha, scale 0 to 100 (0 no effect, 100 complete control), read-out: Plant response rating, Foxtail, Green): 20%
- pest or weed control at 16 g/ha (bluegrass [2]; 16 g ai/ha): 0%
- pest or weed control at 31 g/ha (bluegrass [2]; 31 g ai/ha): 0%
- pest or weed control at 62 g/ha (bluegrass [2]; 62 g ai/ha): 0%
- pest or weed control at 125 g/ha (bluegrass [2]; 125 g ai/ha): 10%
- pest or weed control at 250 g/ha (bluegrass [2]; 250 g ai/ha): 15%
- pest or weed control at 16 g/ha (bluegrass [3]; 16 g ai/ha, scale 0 (no effect) to 100 (complete control), read-out: Plant response rating, Bluegrass): 0%
- pest or weed control at 31 g/ha (bluegrass [3]; 31 g ai/ha, scale 0-100, read-out: Plant response rating, Bluegrass): 0%
- pest or weed control at 62 g/ha (bluegrass [3]; 62 g ai/ha, scale 0-100, read-out: Plant response rating, Bluegrass): 0%
- pest or weed control at 125 g/ha (bluegrass [3]; 125 g ai/ha, scale 0-100, read-out: Plant response rating, Bluegrass): 30%
- pest or weed control at 250 g/ha (bluegrass [3]; 250 g ai/ha, scale 0-100, read-out: Plant response rating, Bluegrass): 40%
- corn plant response (injury) rating, 0-100 at 31 g/ha (corn; [5]): 0%
- corn plant response (injury) rating, 0-100 at 62 g/ha (corn; [6]): 10%
- corn plant response (injury) rating, 0-100 at 125 g/ha (corn; [7]): 5%
- corn plant response (injury) rating, 0-100 at 8 g/ha (corn; [8]): 0%
- corn plant response (injury) rating, 0-100 at 16 g/ha (corn; [9]): 0%
- pest or weed control at 16 g/ha (deadnettle; 16 g ai/ha, scale 0 (no effect) to 100 (complete control), read-out: Plant response rating, Deadnettle): 0%
- pest or weed control at 31 g/ha (deadnettle; 31 g ai/ha, scale 0-100, read-out: Plant response rating, Deadnettle): 0%
- pest or weed control at 62 g/ha (deadnettle; 62 g ai/ha, scale 0-100, read-out: Plant response rating, Deadnettle): 10%
- pest or weed control at 125 g/ha (deadnettle; 125 g ai/ha, scale 0-100, read-out: Plant response rating, Deadnettle): 20%
- pest or weed control at 250 g/ha (deadnettle; 250 g ai/ha, scale 0-100, read-out: Plant response rating, Deadnettle): 80%
- pest or weed control at 16 g/ha (field violet [4]; 16 g ai/ha, scale 0 (no effect) to 100 (complete control), read-out: Plant response rating, Field Violet): 0%
- pest or weed control at 31 g/ha (field violet [4]; 31 g ai/ha, scale 0-100, read-out: Plant response rating, Field Violet): 0%
- pest or weed control at 62 g/ha (field violet [4]; 62 g ai/ha, scale 0-100, read-out: Plant response rating, Field Violet): 20%
- pest or weed control at 125 g/ha (field violet [4]; 125 g ai/ha, scale 0-100, read-out: Plant response rating, Field Violet): 70%
- pest or weed control at 250 g/ha (field violet [4]; 250 g ai/ha, scale 0-100, read-out: Plant response rating, Field Violet): 80%
- pest or weed control at 16 g/ha (kochia; 16 g ai/ha, scale 0-100, read-out: Plant response rating, Kochia): 30%
- pest or weed control at 31 g/ha (kochia; 31 g ai/ha, scale 0 to 100 (0 no effect, 100 complete control), read-out: Plant response rating, Kochia): 70%
- pest or weed control at 62 g/ha (kochia; 62 g ai/ha, scale 0 to 100 (0 no effect, 100 complete control), read-out: Plant response rating, Kochia): 100%
- pest or weed control at 125 g/ha (kochia; 125 g ai/ha, scale 0 to 100 (0 no effect, 100 complete control), read-out: Plant response rating, Kochia): 100%
- pest or weed control at 250 g/ha (kochia; 250 g ai/ha, scale 0 to 100 (0 no effect, 100 complete control), read-out: Plant response rating, Kochia): 100%
- pest or weed control at 16 g/ha (wild mustard; 16 g ai/ha, scale 0-100, read-out: Plant response rating, Mustard, Wild): 20%
- pest or weed control at 31 g/ha (wild mustard; 31 g ai/ha, scale 0 to 100 (0 no effect, 100 complete control), read-out: Plant response rating, Mustard, Wild): 50%
- pest or weed control at 62 g/ha (wild mustard; 62 g ai/ha, scale 0 to 100 (0 no effect, 100 complete control), read-out: Plant response rating, Mustard, Wild): 75%
- pest or weed control at 125 g/ha (wild mustard; 125 g ai/ha, scale 0 to 100 (0 no effect, 100 complete control), read-out: Plant response rating, Mustard, Wild): 95%
- pest or weed control at 250 g/ha (wild mustard; 250 g ai/ha, scale 0 to 100 (0 no effect, 100 complete control), read-out: Plant response rating, Mustard, Wild): 98%

Reference: patent US9695155B2, “Herbicidal substituted pyrimidinyloxy benzene compounds” (E. I. DU PONT DE NEMOURS AND COMPANY, priority 2013, dated 2017)
